“Also recorded” adds a separate entry of the source.
Legend:
C57B1/6 male mice = experiment: Forced swim test (FST); type: in vivo, mouse; details: vs vehicle
Protocol: C57B1/6 male mice were ordered from Jackson Laboratories at 8 weeks-old and were group housed (4-5 mice/cage) under normal housing conditions (12 h light ON cycle starting at 7 am/water and food ad libitum) for one week. During this week, animals were handled in order to habituate them to the experimenter and to reduce their anxiety-like response during behavioral testing.
All drugs were diluted in a vehicle solution containing 85% H2O, 14% propylene glycol (Sigma Aldrich) and 1% Tween 80 (Sigma Aldrich). Working solutions were prepared at a concentration of 20 mg/mL and administered i.p. adjusted to the body weight of each animal. Doses used were either 1, 5 or 10 mg/kg. For all FST experiments, animals were injected i.p. with vehicle or αPAM.
Mice were tested in the forced swim test (FST) (measure of despair-like behavior used for the assessment of antidepressant efficacy). Animals were sub-chronically injected three times (24, 20 and 1 hour before testing) as per standard methods in the field for testing potential antidepressant compounds.
One hour after the last injection, mice were placed in an inescapable transparent tank filled with water (25 cm, 25-26° C.), where they are unable to touch the bottom and unable to jump out of the tank. Animal were recorded for a period of 6 minutes and a manual count of the immobile time in the tank was measured for the 2-6 minutes period by an experimenter blinded to the mouse treatment history. Immobility is defined as the minimum amount of movement to stay afloat. Compounds that reduced immobility in the FST are considered to have potential antidepressant actions.

HEPG2 = experiment: Cytotoxicity assay (CellTiter-Glo), HEPG2; type: cell-based, human; details: 48 hours incubation
Protocol: Human liver hepatocellular carcinoma (HEPG2) and human embryonic kidney 293 (HEK293) cell lines were purchased (ATCC) and cultured in 75 cm2 flasks (CellStar). Cells were grown in DMEM/High Glucose (Hyclone, #SH3024301) media to which non-essential amino acids (Hyclone, #SH30238.01), 10 mM HEPES (Hyclone, #SH302237.01), 5×106 units of penicillin and streptomycin (Hyclone, #SV30010), and 10% of heat inactivated fetal bovine serum (Gibco, #10082147) were added. Cells were harvested using 0.05% Trypsin (Hyclone, #SH3023601), washed with PBS, and dispensed into sterile white, optical bottom 384-well plates (NUNC, #142762). After three hours, small molecule solutions were transferred with a Tecan Freedom EVO liquid handling system equipped with a 100 nL pin tool (V&P Scientific). The controls (E)-10-(bromotriphenylphosphoranyl)decyl 4-(4-(tert-butyl)phenyl)-4-oxobut-2-enoate (400 μM in DMSO, positive control) and DMSO (negative control). The cells were incubated for 48 hours followed by the addition of CellTiter-Glo™, a luminescence-based cell viability assay (Promega, Madison, Wis.). All luminescence readings were performed on a Tecan Infinite M1000 plate reader. The assay was carried out in quadruplet with three independent runs. The data was normalized to the controls and analyzed by nonlinear regression (GraphPad Prism).

[1] = Pharmacokinetics in mice (plasma, liver, brain); details: for concentration at 20 min: C57/BL6, mouse, ip, 10 mg/kg
[2] = target: T1, alpha 5 subunit GABAA receptor (Rattus norvegicus, UniProt P18508+P19969); experiment: Electrophysiology, whole-cell patch clamp in transfected HEK-293T cells; type: cell-based; details: for percent of response to GABA: 1 μM compound, HEK-293T cells transfected with alpha 5 subunit; for relative size of response to GABA among the four compounds: 1 μM, alpha 5, FIG. 26
T1 construct: Full-length cDNAs for GABAA receptor subtypes; expressed in transfected cells; host or cells: HEK-293T (GenHunter, Nashville, Tenn.), transient calcium phosphate transfection
Text: Transfection of Mammalian Cells and Electrophysiological Recordings. Full-length cDNAs for GABAA receptor subtypes (generously provided by Dr. Robert Macdonald, Vanderbilt University and Dr. David Weiss, University of Texas Health Science Center, San Antonio, Tex.) in mammalian expression vectors were transfected into the human embryonic kidney cell line HEK-293T (GenHunter, Nashville, Tenn.) (Chestnut et al, 1996, J. Immunol. Methods 193, 17-27). All subtypes were rat clones except for α2, which was a human clone. Cells were maintained in Dulbecco's modified Eagle's medium (DMEM) plus 10% fetal bovine serum, 100 IU/mL penicillin, and 100 μg/mL streptomycin.
HEK-293T cells were transiently transfected using calcium phosphate precipitation. Plasmids encoding GABAA receptor subtype cDNAs were added to the cells in 1:1:1 ratios (α:β:γ) of 2 μg each.31 For identification of positively transfected cells, 1 μg of the plasmid pHook-1 (Invitrogen Life Technologies, Grand Island N.Y.) containing cDNA encoding the surface antibody sFv was also transfected into the cells.11 Following a 4-6 h incubation at 3% CO2, the cells were treated with a 15% glycerol solution in BBS buffer (50 mM BES(N,N-bis[2-hydroxyethyl]-2-aminoethanesulfonic acid), 280 mM NaCl, 1.5 mM Na2HPO4) for 30 s. The selection procedure for pHook expression was performed 18-52 h later. The cells were passaged and mixed for 30-60 min with 3-5 μL of magnetic beads coated with antigen for the pHook antibody (approximately 6×105 beads).11 Bead-coated cells were isolated using a magnetic stand. The selected cells were resuspended into supplemented DMEM, plated onto glass coverslips treated with poly L-lysine and collagen, and used for recordings the next day.
Cells were patch-clamped at −50 mV in the whole-cell recording configuration. The bath solution consisted of (in mM): 142 NaCl, 8.1 KCl, 6 MgCl2, 1 CaCl2), and 10 HEPES (4-(2-hydroxyethyl)-1-piperazineethanesulfonic acid) with pH=7.4 and osmolarity adjusted to 295-305 mOsm. Recording electrodes were filled with a solution of (in mM) 153 KCl, 1 MgCl2, 5 K-EGTA (ethylene glycol-bis(β-aminoethyl ether N,N,N′N′-tetraacetate), and 10 HEPES with pH=7.4 and osmolarity adjusted to 295-305 mOsm. GABA was diluted into the bath solution from freshly made or frozen stocks in water. Compounds were dissolved in DMSO and diluted into bath solution with the highest DMSO level applied to cells of 0.01%. Patch pipettes were pulled from borosilicate glass (World Precision Instruments, Sarasota, Fla.) on a two-stage puller (Narishige, Japan) to a resistance of 5-10 MO. Solutions containing GABA or GABA+ compounds were applied to cells for 5 s. using a 3-barrelled solution delivery device controlled by a computer-driven stepper motor (SF-77B, Harvard Apparatus, Holliston, Mass., open tip exchange time of <50 ms). There was a continuous flow of external solution through the chamber. Currents were recorded with an Axon 200B (Foster City, Calif.) patch clamp amplifier.
Whole-cell currents were analyzed using the programs Clampfit (pClamp9 suite, Axon Instruments, Foster City, Calif.) and Prism (Graphpad, San Diego, Calif.). Concentration-response data was fit with a four-parameter logistic equation (current=[minimum current+(maximum current−minimum current)]/1+(10(logEC50−log[modulator])n) where n represents the Hill number. All fits were made to normalized data with current expressed as a percentage of the response to GABA alone for each cell.

[3] = 10 mg/kg i.p. 24, 20, 1 hour before testing
[4] = 5 mg/kg i.p. 24, 20, 1 hour before testing

T1 sequence (P19969 32-464 limits assumed): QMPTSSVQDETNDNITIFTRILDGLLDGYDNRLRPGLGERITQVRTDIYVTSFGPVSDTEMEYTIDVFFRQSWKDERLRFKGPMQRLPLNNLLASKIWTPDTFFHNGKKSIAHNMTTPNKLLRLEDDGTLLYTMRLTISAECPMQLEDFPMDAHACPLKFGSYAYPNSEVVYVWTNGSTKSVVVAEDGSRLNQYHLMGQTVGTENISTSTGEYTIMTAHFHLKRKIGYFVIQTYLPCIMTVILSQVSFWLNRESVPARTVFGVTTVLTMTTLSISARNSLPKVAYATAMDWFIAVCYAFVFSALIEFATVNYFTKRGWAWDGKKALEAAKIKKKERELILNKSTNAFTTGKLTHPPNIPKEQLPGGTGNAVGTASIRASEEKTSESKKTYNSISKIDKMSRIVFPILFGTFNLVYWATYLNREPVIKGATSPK
T1 sequence (P63079 26-473 partner): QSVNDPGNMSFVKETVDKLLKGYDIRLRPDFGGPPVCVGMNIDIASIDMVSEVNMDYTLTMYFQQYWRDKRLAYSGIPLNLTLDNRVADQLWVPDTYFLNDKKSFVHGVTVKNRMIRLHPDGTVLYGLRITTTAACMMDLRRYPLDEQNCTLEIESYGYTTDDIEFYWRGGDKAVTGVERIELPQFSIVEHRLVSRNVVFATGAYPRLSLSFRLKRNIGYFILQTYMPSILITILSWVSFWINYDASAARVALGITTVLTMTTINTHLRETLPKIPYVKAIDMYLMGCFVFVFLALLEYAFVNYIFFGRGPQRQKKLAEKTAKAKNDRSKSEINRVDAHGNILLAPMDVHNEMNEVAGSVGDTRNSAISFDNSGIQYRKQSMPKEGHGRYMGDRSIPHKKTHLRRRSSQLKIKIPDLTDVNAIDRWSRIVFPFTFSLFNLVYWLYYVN
T1 sequence (P18508 39-466): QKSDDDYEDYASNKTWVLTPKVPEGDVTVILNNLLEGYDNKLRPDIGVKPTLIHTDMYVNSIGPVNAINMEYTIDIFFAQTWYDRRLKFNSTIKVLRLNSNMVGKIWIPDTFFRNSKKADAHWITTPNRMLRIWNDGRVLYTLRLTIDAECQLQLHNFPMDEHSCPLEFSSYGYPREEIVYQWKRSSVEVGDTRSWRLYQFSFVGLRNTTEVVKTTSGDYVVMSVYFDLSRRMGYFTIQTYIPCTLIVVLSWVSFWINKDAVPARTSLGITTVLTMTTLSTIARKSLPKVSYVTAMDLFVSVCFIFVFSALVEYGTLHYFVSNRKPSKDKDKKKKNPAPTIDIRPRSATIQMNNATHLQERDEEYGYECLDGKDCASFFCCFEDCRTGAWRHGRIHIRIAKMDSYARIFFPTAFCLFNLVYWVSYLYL

Row | SMILES | time spent immobile in the FST (C57B1/6 male mice; [3]) | HEPG2 LD50 (HEPG2) | molar concentration range reached in mouse brain tissue ([1]; 10 mg/kg dose i.p.) | percent of response to GABA [2] | relative size of response to GABA among the four compounds [2] | time spent immobile in the FST (C57B1/6 male mice; [4]) | molar concentration range reached in mouse brain tissue ([1]; i.p. dosing at 3 mg/kg) | concentration at 20 min ([1]; brain) | concentration at 20 min ([1]; liver) | concentration at 20 min ([1]; plasma) | brain penetrance ([1]; mice and rats) | brain concentrations, suitability for CNS-active drug ([1]; pilot cassette study, mice and rats)
1 | C#Cc1ccc2c(c1)C(c1ccccc1F)=N[C@H](C)c1c(C(=O)NC)ncn1-2 [MP-III-022] | significant decrease in immobility time; also recorded: significant antidepressant-like action | >200 µM | – | – | – | – | – | – | – | – | – | –
2 | C#Cc1ccc2c(c1)C(c1ccccc1F)=N[C@H](C)c1c(C(=O)N(C)C)ncn1-2 [GL-II-73, (R)-8-ethynyl-6-(2-fluorophenyl)-N,N,4-trimethyl-4H-benzo[f]imidazo[1,5-a][1,4]diazepine-3-carboxam] | significantly decreased the immobility; also recorded: significant antidepressant-like efficacy | >400 µM | micromolar range | increased in the percent of response to GABA | greatest response | – | – | – | – | – | – | –
3 | C#Cc1ccc2c(c1)C(c1ccccc1F)=N[C@@H](C)c1c(C(=O)N(C)C)ncn1-2 [GL-I-54, (S)-8-ethynyl-6-(2-fluorophenyl)-N,N,4-trimethyl-4H-benzo[f]imidazo[1,5-a][1,4]diazepine-3-carboxamide] | – | >400 µM | – | – | – | significant decrease in immobility time; also recorded: significant antidepressant-like action | high submicromolar to low micromolar values | – | – | – | – | –
4 | C#Cc1ccc2c(c1)C(c1ccccc1F)=N[C@H](C)c1c(C(=O)N3CCCC3)ncn1-2 [GL-II-76, (R)-(8-ethynyl-6-(2-fluorophenyl)-4-methyl-4H-benzo[f]imidazo[1,5-a][1,4]diazepin-3-yl)(pyrrolidin-1-yl)methanone] | – | >400 µM | – | increased in the percent of response to GABA | – | – | – | 204 ± 101 ng/g | 4360 ng/g | 605 ± 198 ng/mL | brain-penetrant at the exception of GI-II-76 | suboptimal
5 | C#Cc1ccc2c(c1)C(c1ccccc1F)=N[C@H](C)c1c(C(=O)NC3CC3)ncn1-2 [GL-II-75, (R)—N-cyclopropyl-8-ethynyl-6-(2-fluorophenyl)-4-methyl-4H-benzo[f]imidazo[1,5-a][1,4]diazepine-3-carboxamide] | significantly decreased the immobility; also recorded: significant antidepressant-like efficacy | – | micromolar range | increased in the percent of response to GABA | greatest response | significantly decreased the immobility; also recorded: significant antidepressant-like efficacy | – | – | – | – | – | –
6 | C#Cc1ccc2c(c1)C(c1ccccc1F)=N[C@H](C)c1c(C(=O)NCC)ncn1-2 [GL-II-74, (R)—N-ethyl-8-ethynyl-6-(2-fluorophenyl)-4-methyl-4H-benzo[f]imidazo[1,5-a][1,4]diazepine-3-carboxamide] | significantly decreased the immobility; also recorded: significant antidepressant-like efficacy | – | micromolar range | increased in the percent of response to GABA | greatest response | significantly decreased the immobility; also recorded: significant antidepressant-like efficacy | – | – | – | – | – | –
